Values of other authors in patent US20110294894A1, “Pharmaceutical Composition for the Treatment of Solar Urticaria” (priority 2010, published 2011).

Tested on: severe antihistamine-resistant solar urticaria
Conditions: single case, Güzelbey et al., 2008

## omalizumab
  effectiveness in solar urticaria: effective
